# In patent publication US11110195B2, “Esculentin 1a derivatives and uses thereof” (University of Houston System, priority 2013, dated 2021):
# Residues, ends and D or L forms follow the SMILES beside them.
# Experiments:
# [1] = system: P. aeruginosa ATCC 19660; test: Bactericidal activity in the presence of basal human tears; format: cell-based, Pseudomonas aeruginosa; conditions: 10 μM peptide, within 30 minutes, 70% (v/v) basal tears
# Experimental: (§1) FIGS. 2A-2B show the effects of human basal tears on the bactericidal activity of Esc-1a(1-21)NH2 against P. aeruginosa ATCC 27853 (FIG. 2A) and ATCC 19660 (FIG. 2B). Bacterial cells were incubated with the peptide in the presence of different concentrations of tears collected from eighteen consenting adult volunteers with normal ocular surface and pooled. Aliquots were withdrawn for cell counting at different time intervals. Mean data (n=3), expressed as the percentage of bacteria killed by the peptide are shown. *Indicates significant difference, p<0.05.
# (§2) 2×10^6 CFU/ml P. aeruginosa (ATCC 27853 or ATCC 19660) were incubated with 1-20 μM Esc-1a(1-21)NH2 in the presence of 50% or 70% v/v tears and aliquots withdrawn, plated and counted after 30, 90 and 120 minutes (n=3).
# [2] = system: P. aeruginosa ATCC 27853; test: as above; format: cell-based, Pseudomonas aeruginosa; conditions: for percentage of bacteria killed: 20 μM peptide, 90 minutes
# Experimental: as §1, §2
# [3] = system: HaCaT cells; test: Wound healing assay, HaCaT cells; format: cell-based, human; conditions: HaCaT monolayer
# Experimental: The percentage of cell-covered area at each time point is reported on the y-axis. Control (Ctrl) represents cells not treated with the peptide. All data are the mean of at least three independent experiments ±SEM. […] The optimal concentration allowing gap closure was 0.25 μM.
# The experimental procedure is similar to that described in Example 6 with the following two differences: (i) 40,000 cells suspended in DMEM supplemented with 4 mM glutamine and 10% FBS were seeded on each side of the ibidi culture inserts instead of 70,000 cells in KGM-2g as for corneal epithelial cells; (ii) serum-free medium was used in the wound healing assay instead of medium supplemented with 5% FBS as for corneal epithelial cells. […] Overall, the experiments indicate that Esc-1a(1-21)NH2 can stimulate wound closure in different types of mammalian cells but this is with a different kinetic or optimal concentration and thus a stereospecific mechanism involving a direct/indirect activation of different signalling transduction cascades (depending on the selected cell type) likely subtends such events.
# [4] = in vitro; conditions: human, human telomerase immortalized corneal epithelial cells
# Experimental: (§3) Human corneal epithelial cells were incubated with varying concentrations of Esc-1a(1-21)NH2 for 24 hrs then cytotoxicity determined by MTT assay. Data are the mean of 3 independent experiments.
# (§4) To determine the toxicity of Esc-1a(1-21)NH2 to human telomerase immortalized corneal epithelial cells, the following experiment was performed. The MTT (3-(4,5-Dimethylthiazole-2-yl)-2,5-diphenyltetrazolium bromide) assay measures the activity of enzymes that reduce the tetrazolium blue dye to a formazan salt. Mitochondrial reductase enzymes will reduce MTT to formazan, which can be visualized by colorimetric reaction the absorbance of which can be quantified.
# (§5) MTT assay was performed on human telomerase immortalized corneal epithelial cells treated with different concentrations of the peptide for 24 hrs. The test was performed in triplicate or quadruplicate wells with concentrations of the peptide of up to 100 μM using the following protocol. On day 1, plated the telomerase immortalized epithelial cells at 10,000 cells/well in a 96 well plate. Incubated the plate at 37° C. for […] to allow the cells to attach to the plate and spread. On day 2, incubated the cells in serum free media for at least 6 hrs prior to peptide treatment. On day 3, stimulated the cells with 100, 50, 25, 10, 5, 1, 0.5 and 0.1 μM Esc-1a(1-21)NH2 in quadruplicate for 24 hrs. On day 4, added 50 μl of 0.02% Benzalkonium chloride into 4 wells as a positive control for 15 minutes. Added 50 μl of serum free media into all the other wells (total volume 100 μl). Added 10 μl of MTT stock solution into each of the well. Incubated at 37° C. for 3 hours. At the end of 3 hours purple crystals were visible under the microscope. Added 100 μl of stop solution into each well using a multichannel pipette. Pipetted up and down to dissolve all the crystals. Gently popped the bubbles using a 10 μl tip. Read plate using plate reader at 590 nm abs and 635 nm reference. Subtracted reference OD value (635) from 590 OD value and plotted graph.
# [5] = system: human telomerase immortalized corneal epithelial cells; test: in vitro; conditions: 24 hrs
# Experimental: as §3, §4, §5
# [6] = MTT viability assay, A549 cells; conditions: human
# Experimental: Cell viability is expressed as percentage with respect to the control (cells not treated with the peptides). Data points represent the mean of triplicate samples ±SEM. […] The levels of statistical significance between the two peptides are indicated as follows: **p<0.01, ***p<0.001.
# Cells were plated in wells of a microtiter plate, at 4×10^4 cells/well in DMEM supplemented with 2 mM glutamine and 2% FBS (for A549 cells) or DMEM containing 2 mM glutamine, non-essential amino acids (NEAA), sodium pyruvate and 2% FBS (for Raw 264.7 macrophages). After overnight incubation at 37° C. in a 5% CO2 atmosphere, the medium was replaced with 100 μl fresh serum-free medium supplemented with the peptides at different concentrations. After 24 h of peptide treatment, cell viability was determined by a MTT assay.
# [7] = in vitro; conditions: for Peptide Amount (%): 24 h, 37° C.; for remaining at 5 h, 0.575 mM / remaining at 24 h, 0.575 mM: human
# Experimental: A total of 125 μl of a 0.92 mM solution of each peptide was incubated at 37° C. with 20 μl and 60 μl human serum. Samples were collected after 5 h and 24 h of incubation, precipitated with 200 μl methanol, and centrifuged for 2 min at 10,000 g.
# The crude solution was then analyzed by high-performance liquid chromatography (HPLC) and mass spectrometry. HPLC was performed with a Vydac C18 column, and the crude solution was diluted 5 times with 0.1% trifluoroacetic acid before injection and monitored at 280 nm.
# [8] = system: A549 lung epithelial cells; test: Wound healing assay, A549 lung epithelial cells; format: cell-based, human; conditions: A549 monolayer
# Experimental: The percentage of cell-covered area at each time point is reported on the y-axis. Control (Ctrl) represents cells not treated with the peptides. All data are the mean of at least three independent experiments ±SEM. […] Both peptides were able to stimulate the closure of the gap produced in the monolayer of A549 cells, with the optimal concentration allowing the almost complete coverage of the wound field equal to 10 μM (for the wild type peptide, FIG. 13A) or 4 μM (for the diastereomer, FIG. 13B) within approximately 24 hours or 20 hours, respectively.
# As shown in FIGS. 13A-13B, Esc-1a(1-21)NH2 and its diastereomer both stimulated wound closure although at concentrations much higher than were required to induce a similar effect in human corneal epithelial cells. This may reflect cell specific differences.
smiles,measurement,setting,value
CC[C@H](C)[C@H](NC(=O)CN)C(=O)N[C@@H](Cc1ccccc1)C(=O)N[C@@H](CO)C(=O)N[C@@H](CCCCN)C(=O)N[C@@H](CC(C)C)C(=O)N[C@@H](C)C(=O)NCC(=O)N[C@@H](CCCCN)C(=O)N[C@@H](CCCCN)C(=O)N[C@H](C(=O)N[C@@H](CCCCN)C(=O)N[C@@H](CC(N)=O)C(=O)N[C@@H](CC(C)C)C(=O)N[C@@H](CC(C)C)C(=O)N[C@H](C(=O)N[C@@H](CO)C(=O)NCC(=O)N[C@@H](CC(C)C)C(=O)N[C@@H](CCCCN)C(=O)NCC(N)=O)[C@@H](C)CC)[C@@H](C)CC [Esc-1a(1-21)NH2] (H-GIFSKLAGKKIKNLLISGLKG-NH2; N-terminus assumed),killing of bacteria,[1],complete killing
same,percentage of bacteria killed,[2]; 50% v/v basal tears,100%
same,percentage of bacteria killed,[2]; 70% v/v basal tears,70%
same,retention of activity in basal tears,"[2]; 1-20 μM peptide, 50% or 70% v/v basal tears",the majority of Esc-1a(1-21)NH2 activity was retained
same,optimal concentration allowing gap closure,[3],0.25 µM
same,time to coverage of the wound-field,[3]; bell-shaped dose-response,9 to 12 h
same,"viability at 24 h, 50 µM",[4],75.7%
same,"viability at 24 h, 100 µM",[4],17.4%
same,concentrations significantly cytotoxic,[5]; MTT (FIG. 4),above 50 μM
same,toxicity to the cells,[5]; concentration below 50 μM,not toxic
same,CC50 at 24 h,[6],150 µM
same,Peptide Amount (%),[7]; 10% human fresh serum,approximately 22.19%
same,Peptide Amount (%),[7]; 30% human fresh serum,~11.5%
same,"remaining at 5 h, 0.575 mM",[7]; 10% human fresh serum,44.4%
same,"remaining at 24 h, 0.575 mM",[7]; 10% human fresh serum,22.2%
same,"remaining at 5 h, 0.575 mM",[7]; 30% human fresh serum,20.9%
same,"remaining at 24 h, 0.575 mM",[7]; 30% human fresh serum,11.5%
same,optimal concentration allowing almost complete coverage of the wound field,[8],10 µM
same,time to almost complete coverage of the wound field,[8]; at optimal concentration,approximately 24 hours
